Patent publication US7410983B2 (Fournier Laboratories Ireland Limited, priority 2000, dated 2008)

Assays:
[1] = system: patients with type 2 diabetes; experiment: Venous occlusion plethysmography: forearm blood flow response to intra-brachial acetylcholine; assay type: in vivo, human; conditions: 12 weeks; for mean change on treatment (Week 12-Week 0) in acetylcholine AUC percent increase in forearm blood flow ratio: single treatment group, 200 mg once daily each agent, ACh 7.5, 15 and 30 μg/min, aspirin pretreatment
Description: Evaluations of vascular function were carried out by bilateral venous occlusion plethysmography at weeks 0 and 12. These consisted of serial measurements of forearm blood flow before and after intra-brachial artery infusion of acetylcholine (ACh 7.5, 15 and 30 μg/min), sodium nitroprusside (SNP 1.5, 3 and 10 μg/min) and N^G-monomethyl-L-arginine (L-NMMA 4 μmol/l). […] Pretreatment with acetylsalicylic acid (aspirin) (650 mg daily taken orally) was given for one week to block prostacyclin and thromboxane generation.
Plethysmography studies were performed during a 5 minute infusion of each agent, diluted in saline and infused at a rate of 1 mL/min into the brachial artery of the non-dominant arm via a thin plastic cannula Each infusion of vasoactive agents was preceded by a period of saline infusion. Bilateral forearm blood flow was measured simultaneously at 15 second intervals for the final two minutes of each 5 minute infusion period employing mercury-in-silastic strain gauges. During measurements hands were excluded from the circulation by inflation of wrist cuffs to 200 mmHg and venous occlusion was obtained by cyclical inflation of upper arm cuffs to 40 mmHg. Results were expressed as the area under the curve (AUC) of the percent increase in forearm blood flow ratio (infused arm versus control arm) to account for any systemic effect of these vasoactive drugs. The AUC provided integration over time of the dose response to the agent used. AUC for percent change in blood flow to ACh was a priori described as the primary efficacy criterion in this trial.
Statistical analyses were performed using 2 by 2 analysis of variance using SPSS package

patient = conditions: for the patient; cited from earlier work
[2] = system: patients with type 2 diabetes; experiment: Venous occlusion plethysmography: forearm blood flow response to acetylcholine with co-infusion of L-NMMA; assay type: in vivo, human; conditions: 12 weeks
Description: (§1) Male or female patients aged less than 70 years and without severe obesity (Body Mass Index below 35 kg/m^2) were included after a 6 week run-in period if they had Haemoglobin A1c below 9%, total cholesterol below 6.5 mmol/l and either triglyceride above 1.8 mmol/l or HDL cholesterol below 1 mmol/l. The two therapeutic agents alone or in combination were given each as 200 mg once daily. Capsules identical in appearance to each agent but containing placebo were given to maintain the double-blind nature of the study.
(§2) Evaluations of vascular function were carried out by bilateral venous occlusion plethysmography at weeks 0 and 12. […]
(§3) Plethysmography studies were performed during a 5 minute infusion of each agent, diluted in saline and infused at a rate of 1 mL/min into the brachial artery of the non-dominant arm via a thin plastic cannula Each infusion of vasoactive agents was preceded by a period of saline infusion. Bilateral forearm blood flow was measured simultaneously at 15 second intervals for the final two minutes of each 5 minute infusion period employing mercury-in-silastic strain gauges. […] Results were expressed as the area under the curve (AUC) of the percent increase in forearm blood flow ratio (infused arm versus control arm) to account for any systemic effect of these vasoactive drugs. […]

[3] = CoQ10 plasma levels after treatment; assay type: in vivo, human; conditions: 12 weeks, 200 mg once daily each
Description: as §1

[4] = system: patients with type 2 diabetes; experiment: Venous occlusion plethysmography: forearm blood flow response to intra-brachial sodium nitroprusside; assay type: in vivo, human; conditions: 12 weeks
Description: as §1, §2, §3

[5] = system: patients with type 2 diabetes; experiment: Lipids, diabetes control and blood pressure in the randomized clinical trial; assay type: in vivo, human; conditions: 12 weeks, 200 mg once daily
Description: as §1

[6] = pooled groups of the 2×2 design: all patients on the agent, with or without the other agent

COC1=C(OC)C(=O)C(C/C=C(\C)CC/C=C(\C)CC/C=C(\C)CC/C=C(\C)CC/C=C(\C)CC/C=C(\C)CC/C=C(\C)CC/C=C(\C)CC/C=C(\C)CCC=C(C)C)=C(C)C1=O [Q, coenzyme Q10]
mean change on treatment (Week 12-Week 0) in acetylcholine AUC percent increase in forearm blood flow ratio, factorial margin (F+ or Q+) [1, 6]: 206% [119% to
mean change on treatment (Week 12-Week 0) in acetylcholine AUC percent increase in forearm blood flow ratio [1]: −7% [−119%
mean change on treatment (Week 12-Week 0) in acetylcholine AUC percent increase in forearm blood flow ratio ([1]; listed as CoQ10): no change
dose previously demonstrated to be safe (patient): up to 300 mg daily
mean change on treatment (Week 12-Week 0) in acetylcholine percent increase in forearm blood flow ratio with co-infusion of L-NMMA, factorial margin (F+ or Q+) [2, 6]: 48% [6% to 90%]
mean change on treatment (Week 12-Week 0) in acetylcholine percent increase in forearm blood flow ratio with co-infusion of L-NMMA ([2]; single treatment group, 200 mg once daily each agent): −21% [−76% to
plasma levels of CoQ10 after treatment, CoQ10 alone versus combination groups [3]: did not differ
mean change on treatment (Week 12-week 0) in sodium nitroprusside AUC percent increase in forearm blood flow ratio, factorial margin (F+ or Q+) [4, 6]: 822% [399% to
mean change on treatment (Week 12-week 0) in sodium nitroprusside AUC percent increase in forearm blood flow ratio ([4]; single treatment group, 200 mg once daily each agent, SNP 1.5, 3 and 10 μg/min): 50% [−641% to
lipid lowering effects [5]: no lipid lowering effects
